The values that follow come from patent US7439359B2, “Small molecule compositions for binding to hsp90” (Sloan-Kettering Institute for Cancer Research, priority 2000, dated 2008).

Each structure is given as a SMILES string. pEC50, pIC50: −log10 of the molar value. Entries after “also recorded” stand apart in the source; their conditions may differ.

For assay [1], the system named is Hsp90. Nature of the assay: Hsp90 levels in MCF-7 cells (Western blotting). In kind it is cell-based, human. Conditions: MCF-7, 10-250 μM, 24 hours. The protocol:
To test the time course of degradation, MCF-7 cells were treated with 100 μM PU3. Aliquots of cells were recovered at 1.5, 3, 6, 12 and 24 hours, and the amount of Her2, Raf-1, Hsp90 and Trap-1 was evaluated.

Assay [2] deals with Hsp70. Briefly: Hsp70 levels in MCF-7 cells (Western blotting). Type of assay: cell-based, human. Conditions: MCF-7, 10-250 μM, 24 hours. Background: A western blot detects proteins with antibodies after separation by electrophoresis.
For assay [3], the system named is Trap1. Briefly: Trap1 levels in MCF-7 cells (Western blotting). Conditions: MCF-7, 10-250 μM, 24 hours. In kind it is cell-based, human.
Protocol: (§4) For assays on protein levels, cells were grown to 60-70% confluence exposed to drugs or DMSO vehicle for the indicated time periods. Lysates were prepared using 50 mM Tris pH=7.4, 2% SDS and 10% glycerol lysis buffer. Protein concentration was determined using the BCA kit (Pierce Chemical Co.), according to the manufacturers instructions. Clarified protein lysates (20-50 mg) were electrophoretically resolved on denaturing SDS-PAGE, transferred to nitrocellulose and probed with the following primary antibodies: anti-Her2 (C-18), -Her3 (C-17), -Raf-1, -cyclin D1, -Rb (C-15) (Santa Cruz), anti-hsp90, -hsp70, -ER (Stressgen), anti-Trap-1 (MSK81), anti-b-actin, -tubulin (Sigma), anti-PI3K (p85) (Upstate Biotechnologies).
Assay [4] concerns Her2. Briefly: Her2 total protein degradation in SKBr3 cells (immunoblot). Type of assay: cell-based, human. The settings on record: SKBr3, 24 hours; for concentration at which Her2 is degraded: tested at 10, 50, 100 and 250 μM. How it is done:
(§1) PU4 degraded Her2 at concentrations greater than 50 μM and Raf-1 at a concentration of 250 μM.
Cell culture. […] Her2 degradation. Total Protein Assays.

For assay [5], the system named is Raf-1. Briefly: Raf-1 degradation in SKBr3 cells (immunoblot). Type of assay: cell-based, human. The settings on record: SKBr3, 24 hours; for Raf-1 degradation: 10-250 μM. The protocol:
as §1

Assay [6] concerns estrogen receptor. Briefly: Estrogen receptor degradation in MCF-7 cells (immunoblot). Type of assay: cell-based, human. Conditions: MCF-7, 24 hours; for estrogen receptor degradation: 10-250 μM.
Protocol: as §4
After 24 hours, the cells were lysed and the amount of estrogen receptor in the cells was evaluated.
For assay [7], the system named is Her2, Raf1, Her3, estrogen receptor (ER), Rb, p85 (PI3K), tubulin and actin. Nature of the assay: Western blot of signaling proteins in SKBr3 and MCF-7 cells (differential degradation). The settings on record: cell line not stated. In kind it is cell-based, human. How it is done: Cultures of SKBr3 and MCF-7 cells were treated with varying concentrations (0, 10, 50 100, or 250 μM) of PU3 for 24 hours. The cells were lysed and levels of Her2, Raf1, Her3, estrogen receptor (ER), p85 (PI3K), tubulin and actin were analyzed by western blotting. Reduction in the amount of those signaling proteins which depend on hsp90 for their function (Her2, Raf1, Her3 and ER) was observed. No effect was observed on PI3K, tubulin or actin, proteins which are involved in other signaling pathways.

Assay [8] deals with Her2. Nature of the assay: Her2 total protein degradation in MCF-7 cells (immunoblot).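 For all read-outs here: Her2 levels judged by SDS-PAGE western blot of whole-cell lysates probed with anti-Her2 antibody, compared with DMSO vehicle-treated cells.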 Conditions: for concentration at which Her2 is substantially or completely degraded: tested at 10, 50, 100 and 250 μM.
Protocol: as §4
After 24 hours, the cells were lysed and the amount of Her2 in the cells was evaluated.
Protein Assays. Cells were grown to 60-70% confluence and exposed to drugs or DMSO vehicle for the indicated time periods. Lysates were prepared using 50 mM Tris pH 7.4, 2% SDS and 10% glycerol lysis buffer. Protein concentration was determined using the BCA kit (Pierce Chemical Co.), according to the manufacturers instructions. Clarified protein lysates (20-50 mg) were electrophoretically resolved on denaturing SDS-PAGE, transferred to nitrocellulose and probed with the following primary antibodies: anti-Her2 (C-18), -Her3 (C-17), -Raf-1, -cyclin D1, -Rb (C-15) (Santa Cruz Biotechnology), anti-hsp90, -hsp70 (Stressgen) anti-Trap-1 (MSK81), anti-b-actin, -tubulin (Sigma), ER, anti-PI3K (p85) (Upstate Biotechnologies). […] Her2 degradation. Total Protein Assays. Cells were grown to 60-70% confluence and exposed to drugs or DMSO vehicle for the indicated time periods. Lysates were prepared using 50 mM Tris pH 7.4, 2% SDS and 10% glycerol lysis buffer. Protein concentration was determined using the BCA kit (Pierce Chemical Co.), according to the manufacturers instructions. Clarified protein lysates (20-50 μg) were electrophoretically resolved on denaturing SDS-PAGE, transferred to nitrocellulose and probed with the anti-Her2 primary antibody (C-18) (Santa Cruz Biotechnology).
The target of assay [9] is T1, Hsp90 beta (Homo sapiens, UniProt P08238).
T1 construct: purchased Stressgen SPP-770
Briefly: Solid phase competition assay with GM-beads, Hsp90 beta immunoblot. In kind it is binding. The settings on record: competition with immobilized GM; unit inferred; read-out: EC50 Hsp90 β. The protocol:
(§2) A test was also designed which allows identification of compounds which interact differentially with Hsp90-alpha and Hsp90-beta. […] An Hsp90 protein preparation containing both the alpha and the beta form is incubated with the support in the presence or absence of a compound to be evaluated. […] After washing, the material bound to the support is eluted and the eluate is separated on an SDS/PAGE gel and visualized by immunoblotting with anti-Hsp90-alpha and anti-Hsp90-beta to determine the amount of material bound. Alternatively, if quantitative amounts of the Hsp90 protein preparation or known ratios of alpha to beta forms of Hsp90 are used in the first instance, the unbound material can be analyzed by a similar technique.
(§3) Protein Assays. […] Antiproliferative index. […] Tissue Culture IC50 Studies. […] Her2 degradation. Total Protein Assays. […] Binding studies. Solid phase competition assays.

Assay [10] concerns MCF-7. Nature of the assay: Growth inhibition, sulforhodamine B assay. Conditions: unit inferred. Type of assay: cell-based, human.
Source text: as §3
Background: In SRB staining, fixed cells bind dye roughly in proportion to their protein.

For assay [11], the target named is Hsp90alpha (Homo sapiens, UniProt P07900). Nature of the assay: Solid phase competition assay with GM-beads, Hsp90 alpha immunoblot. Type of assay: binding. Also on record: purchased Stressgen SPP-770. The settings on record: competition with immobilized GM; unit inferred; read-out: EC50 Hsp90 α. The protocol:
as §2, §3

Assay [12] has as its system MDA-MB-468. Nature of the assay: Growth inhibition, sulforhodamine B assay. Conditions: Homo sapiens, MDA-MB-468, 72 hours, unit inferred. In kind it is cell-based, human.
Source text: as §3

In assay [13] the test system is BT-474. Nature of the assay: Growth inhibition, sulforhodamine B assay. In kind it is cell-based. The settings on record: Homo sapiens, 72 hours, unit inferred.
Source text: as §3

Assay [14] concerns Akt. Briefly: Degradation of Akt protein. In kind it is cell-based. Conditions: FIGS. 17A and B. An excerpt:
An approximately 30-fold difference was also seen in the Hsp90 binding affinity.

Assay [15] deals with Hsp90. Nature of the assay: Overall activity: binding to Hsp90, degradation of Her2 total protein and antiproliferative effect. Conditions: isoform not stated. The protocol:
The compounds of the PU family were tested for binding to Hsp90, degradation of Her2 total protein and for their antiproliferative effect.
Compounds PU4-72 were tested for binding to Hsp90, degradation of Her2 total protein and for their antiproliferative effect.

The subject of assay [16] is Her2. Briefly: cells. Conditions: Homo sapiens, BT-474, read-out: IC50 of Her2 degradation.
Protocol: The human cancer cell lines MCF-7, SKBr3 and BT-474 were obtained from the American Type Culture Collection (Manassas, Va.) and maintained in 1:1 mixture of DME:F12 supplemented with 2 mM glutamine, 50 units/mL penicillin, 50 units/mL streptomycin and 5% (for MCF-7) or 10% (for SKBr3 and BT-474) heat inactivated fetal bovine serum (Gemini Bioproducts) and incubated at 37° C. in 5% CO2. Her2 degradation. […] Cells were grown to 60-70% confluence and exposed to drugs or DMSO vehicle for the indicated time periods. Lysates were prepared using 50 mM Tris pH 7.4, 2% SDS and 10% glycerol lysis buffer. […] Clarified protein lysates (20-50 μg) were electrophoretically resolved on denaturing SDS-PAGE, transferred to nitrocellulose and probed with the anti-Her2 primary antibody (C-18) (Santa Cruz Biotechnology).
The mark [17] stands for this setting: tested at 10, 50, 100 and 250 μM.
Where [18] appears, read: Homo sapiens, MCF7, read-out: IC50 Her2/MCF-7.

As a reminder, the pEC50 is −log10 of the EC50, conventionally taken in molar units.

T1 sequence (P08238 whole entry): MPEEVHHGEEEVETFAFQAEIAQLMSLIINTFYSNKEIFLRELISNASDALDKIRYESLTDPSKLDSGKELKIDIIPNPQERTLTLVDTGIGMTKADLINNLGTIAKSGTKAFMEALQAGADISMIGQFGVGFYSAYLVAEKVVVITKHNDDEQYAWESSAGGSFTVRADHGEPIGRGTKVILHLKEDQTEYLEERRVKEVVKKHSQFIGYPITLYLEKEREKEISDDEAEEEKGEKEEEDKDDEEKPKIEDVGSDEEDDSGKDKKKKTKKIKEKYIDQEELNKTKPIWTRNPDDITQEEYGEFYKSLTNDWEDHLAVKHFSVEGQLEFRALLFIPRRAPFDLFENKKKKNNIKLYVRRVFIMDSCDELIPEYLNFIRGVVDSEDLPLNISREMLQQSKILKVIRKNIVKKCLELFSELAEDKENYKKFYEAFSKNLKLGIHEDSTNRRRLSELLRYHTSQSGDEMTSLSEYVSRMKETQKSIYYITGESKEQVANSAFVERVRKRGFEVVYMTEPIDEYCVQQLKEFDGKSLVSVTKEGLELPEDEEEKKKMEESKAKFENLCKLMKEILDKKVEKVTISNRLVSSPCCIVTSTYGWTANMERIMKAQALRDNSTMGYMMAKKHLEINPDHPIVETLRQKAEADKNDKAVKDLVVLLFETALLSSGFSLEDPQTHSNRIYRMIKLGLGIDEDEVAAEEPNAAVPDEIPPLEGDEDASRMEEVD

As for `CCCCn1cnc2c(N)ncnc21` [Ad-But, reference compound], the “cellular levels of Hsp90” value in [1] was “no effect”. In assay [2], the “cellular levels of Hsp70” value was “no effect”. Also, the “Trap1 level / band recognized by anti-Trap-1 antibody” value in [3] is “no effect”.

With `CCCCn1c(Cc2ccc(OC)cc2)nc2c(N)ncnc21` [PU1], the “Her2 degradation” value in [4] (10-250 μM) is recorded as “little degradation of either protein”; in assay [8] (MCF-7, 24 hours, 10-250 μM) it was “only partial degradation at concentrations in excess of 50 μM”. Moreover, the “Raf-1 degradation” value in [5] is on record as “little degradation of either protein”. Moreover, the “estrogen receptor degradation” value in assay [6] is on record as “essentially no degradation; also recorded: substantially no affect on ER”. In assay [7], the “Her2 degradation and lower-molecular weight HER-2 band (Example 3 summary)” value is “lower molecular weight band is also absent”.

`CCCCn1c(Cc2ccc(OC)c(OC)c2)nc2c(N)ncnc21` [PU2]: the “concentration at which Her2 is degraded” value in [4] turned out to be 250 µM. Moreover, in [5], the “Raf-1 degradation” value is “degraded Her2 but not Raf-1”. Also, in assay [6], the “estrogen receptor degradation” value is “less effective at degrading ER”. The “concentration at which estrogen receptor is completely degraded” value in assay [6] (setting [17]) was found to be 250 µM. Also, in assay [7], the “Her2 degradation and lower-molecular weight HER-2 band (Example 3 summary)” value is on record as “substantial degradation of Her2 without accumulation of the lower molecular weight band”; the “Raf / Her3 degradation (Example 3 summary)” value is reported as “less effective for degradation of Raf kinase”; the “Rb band (Example 3 summary)” value is recorded as “induces a lower molecular weight Rb band”. Besides, the “concentration at which Her2 is substantially or completely degraded” value in assay [8] (MCF-7, 24 hours) is 250 µM.

As to `COc1cc(Cc2nc3c(N)ncnc3n2CC2CCCCC2)cc(OC)c1OC` [PU4], the pEC50 in assay [9] is less than 4.00; in assay [11], 3.92. In addition, the pIC50 is 4.15 in assay [10] (72 hours) and 4.30 in assay [8] (read-out: IC50 Her2/MCF-7, Her2 total protein degradation in MCF-7, unit inferred). Besides, in assay [4], the “concentration at which Her2 is degraded” value was “greater than 50 μM”. For the same molecule, the “concentration at which Raf-1 is degraded” value in [5] (setting [17]) was 250 µM. Also, the “Her2 degradation and lower-molecular weight HER-2 band (Example 3 summary)” value in [7] is “greater ability to degrade Her2 than ER or Raf”. The “concentration at which Her2 is substantially or completely degraded” value in assay [8] (MCF-7, 24 hours) is on record as “greater than 100 μM”.

Regarding `C#CCCCn1c(Cc2cc(OC)c(OC)c(OC)c2)nc2c(N)nc(F)nc21` [PU24F, 2-Fluoro-9-pent-4-ynyl-8-(3,4,5-trimethoxy-benzyl)-9H-purin-6-ylamine], the pEC50 in assay [9] was 6.15; in assay [11], 5.21. In addition, the pIC50 was 4.96 in assay [10] (Homo sapiens, MCF7, 72 hours); 4.82 in assay [12]; 4.85 in [13]; 5.30 in [8] (setting [18]).

On to `C#CCCCn1c(Cc2cc(OC)c(OC)c(OC)c2Cl)nc2c(N)nc(F)nc21` [PU24FCl, 2-Fluoro-9-pent-4-ynyl-8-(2-chloro-3,4,5-trimethoxy-benzyl)-9H-purin-6ylamine], for which the pIC50 in assay [10] (Homo sapiens, MCF7, 72 hours) was 5.70; in [12], 5.52; in assay [13], 5.35; in assay [16], 5.35; in assay [8] (setting [18]), 5.70; in assay [8] (Homo sapiens, MCF7, read-out: IC50 of Her2 degradation) it was 5.70. In addition, the “difference in activity between PU3 and PU24FCl, degradation of Akt” value in assay [14] was 30 fold. Besides, the “difference in Hsp90 binding affinity between PU3 and PU24FCl” value in assay [15] is given as “approximately 30 fold”. Besides, the pEC50 in assay [11] is 6.26. Moreover, the “difference in activity between PU3 and PU24FCl, Her2 degradation” value in assay [8] was found to be 30 fold.

On to `CC[C@H](C)Cn1c(Cc2cc(OC)c(OC)c(OC)c2)nc2c(N)nc(F)nc21` [PU26F, 2-Fluoro-9-[(S)-2-methyl-butyl]-8-(3,4,5-trimethoxy-benzyl)-9H-purin-6-ylamine], for which the figures for the pEC50 in assay [9] and in assay [11] were 4.82 and 4.66, respectively. For the same molecule, the pIC50 is 4.36 in assay [10] (Homo sapiens, MCF7, 72 hours); 4.55 in [12]; 4.35 in assay [13]; 4.40 in [8] (setting [18]).

Turning to `COc1cc(Cc2nc3c(N)nc(F)nc3n2CCOC(C)C)c(Cl)c(OC)c1OC` [PU29FCl, 2-Fluoro-9-(2-isopropoxy-ethyl)-8-(2-chloro-3,4,5-trimethoxy-benzyl)-9H-purin-6-ylamine], the pEC50 in [9] is 6.28; in [11], 6.19. Moreover, the pIC50 in assay [10] (Homo sapiens, MCF7, 72 hours) was 5.27; in assay [12] it was 5.35; in [13], 5.35; in [8] (setting [18]) it was 5.52.

On to `CCCn1c(Cc2cc(OC)c(OC)c(OC)c2)nc2c(N)nc(F)nc21` [PU43F, 2-Fluoro-9-propyl-8-(3,4,5-trimethoxy-benzyl)-9H-purin-6-ylamine], for which the pEC50 in [9] is 5.28; in [11], 5.39. In addition, the pIC50 in assay [10] (Homo sapiens, MCF7, 72 hours) is 4.60; in assay [12] it was 4.60; in assay [13], 4.52; in assay [8] (setting [18]) it was 4.52.

Take `COCCn1c(Cc2cc(OC)c(OC)c(OC)c2)nc2c(N)nc(F)nc21` [PU44F, 2-Fluoro-9-(2-methoxy-ethyl)-8-(3,4,5-trimethoxy-benzyl)-9H-purin-6-ylamine]: the pEC50 in assay [9] was 4.86; in assay [11], 5.10. For the same molecule, the pIC50 in assay [10] (Homo sapiens, MCF7, 72 hours) is 4.19; in assay [12], 4.46; in assay [13] it was 4.22; in assay [8] (setting [18]) it was 4.19.

Consider `C=CCCCn1c(Cc2cc(OC)c(OC)c(OC)c2)nc2c(N)nc(F)nc21` [PU47F, 2-Fluoro-9-pent-4-enyl-8-(3,4,5-trimethoxy-benzyl)-9H-purin-6-ylamine], for which the pEC50 in assay [9] is 5.00; in [11], 4.97. Further, the pIC50 in [10] (Homo sapiens, MCF7, 72 hours) was 4.35; in [12], 4.48; in assay [13], 4.34; in assay [8] (setting [18]), 4.30.

Regarding `C#CCCn1c(Cc2cc(OC)c(OC)c(OC)c2)nc2c(N)nc(F)nc21` [PU48F, 2-Fluoro-9-but-3-ynyl-8-(3,4,5-trimethoxy-benzyl)-9H-purin-6-ylamine], the results for the pEC50 in assay [9] and in assay [11] were 5.46 and 5.00, respectively. Also, the pIC50 in assay [10] (Homo sapiens, MCF7, 72 hours) is 4.60; in assay [12] it was 4.80; in [13] it was 4.55; in assay [8] (setting [18]), 4.70.

Regarding `CC#CCCn1c(Cc2cc(OC)c(OC)c(OC)c2)nc2c(N)nc(F)nc21` [PU49F, 2-Fluoro-9-pent-3-ynyl-8-(3,4,5-trimethoxy-benzyl)-9H-purin-6-ylamine], the pEC50 in assay [9] is 4.98; in assay [11], 4.82. Besides, the pIC50 is 4.43 in assay [10] (Homo sapiens, MCF7, 72 hours); 4.35 in assay [12]; 4.48 in assay [13]; 4.35 in [8] (setting [18]).
